# pIC50: −log10 of the molar value. Counter-ions that a name gives are not always drawn. Like-named read-outs stand apart in the source and are kept apart here.
# Assays:
# [1] = test system: K562 (human chronic myelogenous leukemia) cells; assay: Cell Titer Glo 2.0 cell viability assay; assay type: cell-based; details: Homo sapiens, K562, 72 h, K562 cells, 72 hours, Cell Titer Glo 2.0; read-out: K562 GI50
# [2] = test system: SMN2 mRNA; assay: RT-qPCR splicing assay, SMN2 canonical junction (CJ) mRNA; assay type: cell-based, human; details: Homo sapiens; Table 5 panel; canonical junction qPCR; compound concentration having 50% response in CJ decrease; read-out: SMN2 IC50 (decrease in CJ mRNA levels)
# Outline: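 A673 cells (DMEM/10% FBS) or K562 cells (IMDM/10% FBS) were treated 24 h at 37° C. with 11-point 3-fold dilutions (top 10 uM, ≤0.25% DMSO). Canonical-junction mRNA was quantified in lysates by RT-qPCR, normalized to GAPDH, GUSB or PPIA.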
# [3] = test system: HTT mRNA; assay: RT-qPCR splicing assay, HTT canonical junction (CJ) and alternative junction (AJ) mRNA; assay type: cell-based, human; details: Homo sapiens; for AC50: increase in HTT alternative junction (AJ) mRNA, read-out: HTT AJ AC50
# Outline: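 Read-out is one-step RT-qPCR on cell lysates detecting the exon-exon junction of each isoform, normalized to a housekeeping gene (PPIA in A673, GAPDH or GUSB in K562).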
# [4] = decrease in HTT canonical junction (CJ) mRNA, RT-qPCR, read-out: HTT CJ IC50
# [5] = Table 5 panel, canonical junction qPCR, compound concentration having 50% response in CJ decrease, read-out: HTT IC50 (decrease in CJ mRNA levels)
Compound,GI50 [1] [nM],pIC50 [2],"pIC50 [3, 4]",AC50 ([3]; RT-qPCR) [nM],"pIC50 [3, 5]"
"CCc1cn(C2CCNCC2)c(=O)c2c(F)cc(-c3cc(F)c4nc(C)cn4c3)cc12 [Compound 558, 4-ethyl-8-fluoro-6-{8-fluoro-2-methylimidazo[1,2-a]pyridin-6-yl}-2-(piperidin-4-yl)isoquinolin-1-one]",100 to 1000,> 7.00,5.00 to 6.00,1000 to 10000,5.00 to 6.00
"Cc1cn2nc(-c3cc4ncn(C5CCNCC5)c(=O)c4cc3F)cc(C)c2n1 [Compound 585, 7-{2,8-dimethylimidazo[1,2-b]pyridazin-6-yl}-6-fluoro-3-(piperidin-4-yl)quinazolin-4-one]",1000 to 10000,6.00 to 7.00,5.00 to 6.00,1000 to 10000,5.00 to 6.00
Cc1cn2nc(-c3ccn4c(=O)c(C5CCNCC5)ccc4c3)cc(C)c2n1 [Compound 1181],< 100,> 7.00,> 7.00,< 100,> 7.00
"Cc1cn2nc(-c3ccc4c(=O)n(C5CCNCC5)ccc4c3)cc(CC(N)=O)c2n1 [Compound 528, 2-(2-methyl-6-(1-oxo-2-(piperidin-4-yl)-1,2-dihydroisoquinolin-6-yl)imidazo[1,2-b]pyridazin-8-yl) acetamide]",1000 to 10000,> 7.00,5.00 to 6.00,100 to 1000,6.00 to 7.00
Cc1cn2nc(-c3cc(F)c4c(=O)n([C@H]5CCN(C)C6(CC6)C5)ncc4c3)cc(C)c2n1 [Compound 638],100 to 1000,> 7.00,> 7.00,< 100,> 7.00
"Cc1cn2nc(-c3ccc4c(=O)n(C5CCNCC5)ncc4c3)cc(Oc3ccccc3)c2n1 [Compound 549, 6-(2-methyl-8-phenoxy-imidazo[1,2-b]pyridazin-6-yl)-2-(4-piperidyl) phthalazin-1-one]",100 to 1000,> 7.00,> 7.00,< 100,> 7.00
Cc1cc(-c2cc(O)c3c(=O)n(C4CCNC5(CC5)C4)ncc3c2)cc2cn(C)nc12 (stereo not drawn) [Compound 561],1000 to 10000,6.00 to 7.00,6.00 to 7.00,100 to 1000,6.00 to 7.00
"Cc1cn2cc(-c3cc(O)c4c(=O)n(C5CCNCC5)cnc4c3)cc(F)c2n1 [Compound 587, 7-{8-fluoro-2-methylimidazo[1,2-a]pyridin-6-yl}-5-hydroxy-3-(piperidin-4-yl)quinazolin-4-one]",100 to 1000,> 7.00,6.00 to 7.00,100 to 1000,6.00 to 7.00
"Cc1cn2nc(-c3cc(F)c4c(=O)n(C5CCNC5)cnc4c3)cc(C)c2n1 (stereo not drawn) [Compound 589, 7-{2,8-dimethylimidazo[1,2-b]pyridazin-6-yl}-5-fluoro-3-(pyrrolidin-3-yl)quinazolin-4-one]",1000 to 10000,6.00 to 7.00,< 5.00,> 10000,< 5.00
"Cc1cn2nc(-c3ccc4c(=O)n(C5CCNCC5)ccc4c3)cc(Oc3ccc(F)cc3)c2n1 [Compound 546, 6-[8-(4-fluorophenoxy)-2-methyl-imidazo[1,2-b]pyridazin-6-yl]-2-(4-piperidyl) isoquinolin-1-one; hydrochloride]",< 100,> 7.00,> 7.00,< 100,> 7.00
Cc1cc(-c2ccc3c(=O)n(C4CC(C)(C)NC(C)(C)C4)cnc3n2)cc2cn(C)nc12 [Compound 179],> 10000,5.00 to 6.00,< 5.00,> 10000,< 5.00
CN1CCN(c2ccc3c(=O)n(-c4ccc5cn(C)nc5c4)cnc3c2)CC1 [Compound 178],> 10000,< 5.00,< 5.00,> 10000,< 5.00
Cc1cn2nc(-c3ccc4c(=O)n(C5CCNCC5)cnc4c3)cc(C)c2n1 [Compound 181],100 to 1000,> 7.00,6.00 to 7.00,100 to 1000,6.00 to 7.00
Cc1nc2c(C)cc(-c3cc(F)c4c(=O)n(C5CCNC6(CC6)C5)ncc4c3)cc2o1 (stereo not drawn) [Compound 555],100 to 1000,> 7.00,> 7.00,< 100,> 7.00
"CCOC(=O)c1cc(-c2ccc3c(=O)n(C4CCNCC4)ccc3c2)nn2cc(C)nc12 [Compound 529, ethyl 2-methyl-6-[1-oxo-2-(4-piperidyl)-6-isoquinolyl]imidazo[1,2-b]pyridazine-8-carboxylate]",1000 to 10000,> 7.00,5.00 to 6.00,100 to 1000,6.00 to 7.00
Cc1cn2nc(-c3cc(F)c4c(=O)n(C5CCNCC5)ncc4c3)cc(C)c2n1 [Compound 540],< 100,> 7.00,> 7.00,< 100,> 7.00
"Cc1cn2nc(-c3ccc4c(=O)n(C5CCNCC5)ccc4c3)cc(Cc3nnc[nH]3)c2n1 [Compound 535, 6-[2-methyl-8-(4H-1,2,4-triazol-3-ylmethyl)imidazo[1,2-b]pyridazin-6-yl]-2-(4-piperidyl) isoquinolin-1-one]",1000 to 10000,> 7.00,5.00 to 6.00,1000 to 10000,5.00 to 6.00
Cc1cn2nc(-c3ccc4c(=O)n(C5CCN(C)CC5)cnc4c3)cc(C)c2n1 [Compound 176],1000 to 10000,6.00 to 7.00,5.00 to 6.00,1000 to 10000,5.00 to 6.00
Cn1ccc2c(cnn2-c2ccc3c(=O)n(C4CCNCC4)ccc3c2)c1=O [Compound 521],1000 to 10000,5.00 to 6.00,5.00 to 6.00,1000 to 10000,5.00 to 6.00
Cc1cn2nc(-c3cc(F)c4c(=O)n([C@@H]5CCN(C)C6(CC6)C5)ncc4c3)cc(C)c2n1 [Compound 637],100 to 1000,> 7.00,> 7.00,< 100,> 7.00
Cc1cc(-c2cc(F)c3c(=O)n(C4CCNC5(CC5)C4)ncc3c2)cc2cn(C)nc12 (stereo not drawn) [Compound 554],100 to 1000,> 7.00,6.00 to 7.00,100 to 1000,6.00 to 7.00
"Cc1cn2nc(-c3ccc4c(=O)n(C5CCNCC5)ccc4c3)cc(OCc3ccccc3)c2n1 [Compound 526, 6-(8-benzyloxy-2-methyl-imidazo[1,2-b]pyridazin-6-yl)-2-(4-piperidyl) isoquinolin-1-one]",100 to 1000,> 7.00,6.00 to 7.00,100 to 1000,6.00 to 7.00
"Cc1cn2nc(-c3cc4ccn([C@@H]5CCNC5)c(=O)c4cc3O)cc(C)c2n1 [Compound 640, 6-(2,8-dimethylimidazo[1,2-b]pyridazin-6-yl)-7-hydroxy-2-[(3R)-pyrrolidin-3-yl]isoquinolin-1-one]",100 to 1000,> 7.00,5.00 to 6.00,100 to 1000,6.00 to 7.00
"Cn1ccc2nn(-c3ccc4c(=O)n(C5CCNCC5)ccc4c3)cc2c1=O [Compound 522, 6-{5-methyl-4-oxopyrazolo[4,3-c]pyridin-2-yl}-2-(piperidin-4-yl)isoquinolin-1-one]",1000 to 10000,5.00 to 6.00,< 5.00,> 10000,< 5.00
"Cc1cn2nc(-c3cc(F)c4c(=O)n(C5CCNCC5)ncc4c3)cc(Oc3ccccc3)c2n1 [Compound 548, 8-fluoro-6-(2-methyl-8-phenoxy-imidazo[1,2-b]pyridazin-6-yl)-2-(4-piperidyl)phthala-zin-1-one]",< 100,> 7.00,> 7.00,< 100,> 7.00
"Cc1cn2nc(-c3cc(N)c4c(=O)n([C@H]5CCNC5)ccc4c3)cc(C)c2n1 [Compound 645, 8-amino-6-(2,8-dimethylimidazo[1,2-b]pyridazin-6-yl)-2-[(3S)-pyrrolidin-3-yl]isoquinolin-1-one]",1000 to 10000,6.00 to 7.00,< 5.00,1000 to 10000,5.00 to 6.00
Cc1cn2nc(-c3cc(O)c4c(=O)n(C5CCNCC5)ncc4c3)cc(C)c2n1 [Compound 541],< 100,> 7.00,> 7.00,< 100,> 7.00
CCN1CCC(n2ncc3cc(-c4cc(C)c5nc(C)cn5n4)cc(O)c3c2=O)CC1 [Compound 542],100 to 1000,> 7.00,> 7.00,< 100,> 7.00
Cc1cc(-c2ccc3c(=O)n(C4CCNC5(CC5)C4)ncc3c2)cc2cn(C)nc12 (stereo not drawn) [Compound 512],1000 to 10000,6.00 to 7.00,5.00 to 6.00,100 to 1000,6.00 to 7.00
"Cc1cn2cc(-c3cc(F)c4c(=O)n([C@H]5CNC[C@H]5C)ccc4c3)cc(F)c2n1 [Compound 652, 8-fluoro-6-(8-fluoro-2-methyl-imidazo[1,2-a]pyridin-6-yl)-2-[(3R,4R)-4-methylpyrrolidin-3-yl]isoquinolin-1-one]",1000 to 10000,6.00 to 7.00,< 5.00,> 10000,< 5.00

# Source: patent publication US20250332173A1, “COMPOUNDS AND METHODS FOR MODULATING NUCLEIC ACID SPLICING” (REMIX THERAPEUTICS INC., priority 2021, published 2025)
